The text below walks through data of patent publication US12728161B2 (priority 2019, dated 2026).

SMILES strings stand for the structures. Entries after “also recorded” stand apart in the source; their conditions may differ.

The test system of data set [1] is pseudotyped NiV/VSV virus (pNiV).
The test system of data set [2] is HEK293T cells expressing NiV F and G. The data set is classed as cell-based.
The next data set relates to NiV. The conditions noted are these: cited from earlier work.
Data set [3] relates to Human respiratory syncytial virus (RSV A2 strain). The data set is classed as cell-based.
A further data set deals with pNiV viral membranes. Further details: species or system NiV.
Data set [4] concerns the target NiV F and G on pNiV virions (Nipah virus, UniProt Q9IH62+Q9IH63).
The test system of data set [5] is Human Cytomegalovirus (HCMV). The data set is classed as cell-based.
In data set [6] the test system is SARS-CoV-2 (isolate USA-WA1/2020). The data set is classed as cell-based.
The test system of data set [7] is bovine rotavirus strain NCDV. The data set can be described thus: Rotavirus infection assay in MA104 cells. The conditions noted are these: non-enveloped virus. The data set is classed as cell-based. As for the experimental part: 18β-glycyrrhetinic acid (GRA) (Sigma-Aldrich) stock solutions were prepared to a concentration of 100 mg/mL in DMSO and aliquots were stored at −80° C. The stock solutions were diluted to working concentrations in DMEM without FBS. For the control compounds, MA104 (ATCC) cells were treated for 6 h with 25 μg/mL GRA. The viability was measured with the Promega CellTiterGlo Assay according to the manufacturer's protocol, with digitonin as the control for 100% cytotoxicity. Data shown are representative of two experiments, with each concentration tested in triplicate in each experiment. Error bars indicate SEM. […] Mock-infected wells received 50 μl of 0% M199 vehicle media. 50 μl of fresh 2× control and experimental compounds were added and at 18 h post-infection, the cells were fixed for 10 min with 80% acetone (Hardy et al., “18 Beta-glycyrrhetinic Acid Inhibits Rotavirus Replication in Culture,” Virol. J. 9:96 (2012), which is hereby incorporated by reference in its entirety).

The next data set concerns HSV-1 KOS. Briefly: Plaque assay for HSV-1 infections. The data set is classed as cell-based. The conditions noted are these: virions treated with XM-01 before infection, various concentrations. As for the experimental part:
At 3 h post-inoculation, the medium was removed. At 18 to 24 h post-infection, the culture medium was removed, and cells were fixed with an ice-cold methanol-acetone solution (2:1 ratio) for 20 min at […] and air-dried. Virus titers were determined by immunoperoxidase staining with anti-HSV polyclonal antibody HR50 (Fitzgerald Industries, Concord, MA) (Roller et al., “Structure-Function Analysis of Herpes Simplex Virus Glycoprotein B with Fusion-from-without Activity,” Virology 382:207-216 (2008), which is hereby incorporated by reference in its entirety).

Data set [8] deals with NiV F and G glycoproteins. The data set is classed as cell-based. The settings on record: XM-01 treatment.
Another data set concerns the target NiV F protein (Nipah virus, UniProt Q9IH63).
The test system of a further data set is norovirus. The data set can be described thus: Plaque assay for norovirus infection in RAW 264.7 cells. The data set is classed as cell-based. The conditions noted are these: non-enveloped virus. On the procedure: RAW 264.7 (ATCC) cells were infected with serial dilutions of norovirus for 1 h. 3% wt/vol Seaplaque agarose in 2×MEM media was placed as a first overlay. Then, cells were incubated for 48 h when plaques were visible and counted.

Data set [9] relates to vesicular stomatitis virus (VSV). The data set is classed as cell-based.
A further data set has as its target NiV G glycoprotein (Nipah virus, UniProt Q9IH62).
Data set [10] has as its system A/California/04/2009 (H1N1). The data set is classed as cell-based, influenza virus.

NiV F protein, sequence (Q9IH63 110-546 limits assumed): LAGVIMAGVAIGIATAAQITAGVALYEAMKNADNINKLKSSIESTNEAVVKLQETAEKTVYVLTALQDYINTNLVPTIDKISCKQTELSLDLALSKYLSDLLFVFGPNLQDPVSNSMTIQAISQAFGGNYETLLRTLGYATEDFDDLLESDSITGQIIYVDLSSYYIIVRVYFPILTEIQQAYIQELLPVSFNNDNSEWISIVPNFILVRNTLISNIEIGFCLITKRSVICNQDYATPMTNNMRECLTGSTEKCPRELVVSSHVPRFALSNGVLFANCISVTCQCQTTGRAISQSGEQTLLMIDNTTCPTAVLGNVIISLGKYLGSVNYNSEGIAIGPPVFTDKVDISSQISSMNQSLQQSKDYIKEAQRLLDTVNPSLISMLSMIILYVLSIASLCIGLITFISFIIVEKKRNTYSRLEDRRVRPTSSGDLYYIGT
NiV F protein, sequence (Q9IH63 27-109 limits assumed): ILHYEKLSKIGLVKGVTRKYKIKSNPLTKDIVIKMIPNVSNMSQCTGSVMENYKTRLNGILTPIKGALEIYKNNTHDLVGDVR
NiV G glycoprotein, sequence (Q9IH62 whole entry, looked up): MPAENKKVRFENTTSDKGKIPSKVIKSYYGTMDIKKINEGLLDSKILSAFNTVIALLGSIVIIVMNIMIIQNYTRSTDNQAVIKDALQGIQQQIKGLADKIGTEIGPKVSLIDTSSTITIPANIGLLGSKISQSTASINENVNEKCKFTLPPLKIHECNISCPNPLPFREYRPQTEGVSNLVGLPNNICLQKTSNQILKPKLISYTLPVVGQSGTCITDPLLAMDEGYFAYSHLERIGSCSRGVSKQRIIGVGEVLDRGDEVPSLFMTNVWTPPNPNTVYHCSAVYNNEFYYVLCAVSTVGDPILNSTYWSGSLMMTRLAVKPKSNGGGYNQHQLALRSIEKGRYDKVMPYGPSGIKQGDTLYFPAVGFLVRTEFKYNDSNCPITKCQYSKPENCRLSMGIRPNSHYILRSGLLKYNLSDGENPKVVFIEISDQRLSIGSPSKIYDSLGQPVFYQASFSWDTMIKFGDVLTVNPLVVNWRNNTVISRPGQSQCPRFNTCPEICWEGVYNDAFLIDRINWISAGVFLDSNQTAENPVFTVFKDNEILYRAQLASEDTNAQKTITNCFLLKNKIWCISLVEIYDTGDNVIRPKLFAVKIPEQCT

In the case of `C=CCN1C(=O)/C(=C/c2ccc(-c3ccccc3)o2)SC1=S` [LJ001, reference compound], the “antiviral activity in the absence of light” value in data set [1] is “severely reduced in the absence of light”. Moreover, the “cell-cell fusion (syncytia)” value in data set [2] is given as “affect cell-cell fusion”.
Regarding `[Na+].[SH-]` [NaHS], the “antiviral effects against NiV” value with NiV was “known antiviral effects against NiV, although at high (millimolar) concentrations”.
For the compound `COC(=O)C(CSSC(=O)c1ccccc1)NC(=O)c1ccccc1` (stereo not drawn) [XM-01], the “inhibition of RSV infection” value in data set [3] is listed as “inhibited by XM-01 in a concentration-dependent fashion”. Moreover, the “viral membrane appearance by electron microscopy” value with pNiV viral membranes is listed as “compromised membranes”. Moreover, the “antibody binding to F or G (conformation)” value in data set [4] is given as “no significant changes in antibody binding to either glycoprotein”. For the same compound, the “inhibition of HCMV infection” value in data set [5] is given as “inhibited by XM-01 in a concentration-dependent fashion”. In addition, in [6], the “inactivation of SARS-CoV-2” value is “complete inactivation” and the “inhibition of plaque formation of SARS-CoV2” value was “effective to inhibit plaque formation”. Besides, the “inhibition of rotavirus entry” value in data set [7] is “not inhibited”. The “inhibition of HSV-1 infection” value in the data set on HSV-1 KOS is reported as “inhibited by XM-01 in a concentration-dependent fashion”. Further, in data set [8], the “cell surface expression of F and G glycoproteins” value is reported as “not be significantly affected”. Moreover, the F-triggering result on NiV F protein is reported as “not decreased”. In data set [1], the EC50 was roughly 1000 nM; the “antiviral activity in the absence of light” value is “did not need light to inhibit pNiV infection”; the “difference between the inhibitory and cytotoxic concentrations” value is listed as ~ 3 log; the “infectivity of treated virions” value was “highly inhibited”. In data set [1], the “inhibition of infection post-entry (time of XM-01 addition)” value is listed as “completely incapable of inhibiting the infection” and the “viral infection after pre-treatment of cells” value is reported as “did not significantly reduce viral infection”. Besides, the “cell-cell membrane fusion (syncytia)” value in data set [2] was “significantly reduced levels of cell-cell membrane fusion”. The “inhibition of norovirus entry” value in the data set on norovirus was “not inhibited”. The “inhibition of VSV infection” value in data set [9] is “inhibited by XM-01 in a concentration-dependent fashion”. At NiV G glycoprotein, the ephrinB2/G binding entry was “did not interfere with the receptor-binding ability of the G glycoprotein”. For the same compound, in data set [10], the EC50 entry is reported as “high nanomolar to low micromolar range”, the “inhibition of influenza A/California/04/2009 infection” value is recorded as “inhibited by XM-01 in a concentration-dependent fashion; also recorded: significantly inhibited” and the neutralization of influenza entry is “complete neutralization”. Besides, in the data set with Vero cells, the CC50 was roughly 1 mM, the cytotoxicity entry is reported as “little to no cytotoxicity” and the cytotoxicity levels entry is reported as “low levels of cytotoxicity”.
In the case of `CC(=O)NC(CSSC(=O)c1ccccc1)C(=O)NCc1ccccc1` (stereo not drawn) [XM-02], in [1], the “infectivity of pNiV in Vero cells” value is given as “best inhibited pNiV infections” and the “inhibitory properties against pNiV” value is given as “inhibitory properties”. Also, the cytotoxicity levels result in the data set with Vero cells is “low levels of cytotoxicity”.
For `COC(=O)C(CSSC(C)=O)NC(=O)c1ccccc1` (stereo not drawn) [XM-03] the same measures were “best inhibited pNiV infections”, “inhibitory properties” and “low levels of cytotoxicity”.
Consider `CCCCNC(=O)C(CCSSC(=O)c1ccccc1)NC(=O)c1ccccc1` (stereo not drawn) [XM-06], for which, in data set [1], the “infectivity of pNiV in Vero cells” value is “best inhibited pNiV infections”.
In the case of `COC(=O)C(CSC(=O)c1ccccc1)NC(=O)c1ccccc1` (stereo not drawn) [XM-10], the “inhibitory properties against pNiV” value in data set [1] is listed as “inhibitory properties”. The cytotoxicity levels entry in the data set with Vero cells is “low levels of cytotoxicity”.
For `COC(=O)C(CSC(C)=O)NC(=O)c1ccccc1` (stereo not drawn) [XM-11] the same measures were “inhibitory properties” and “low levels of cytotoxicity”.
As for `O=C(SSC(=O)c1ccccc1)c1ccccc1` [XM-12], the “infectivity of pNiV in Vero cells” value in data set [1] is recorded as “best inhibited pNiV infections”.
As to `C=O` [formalin, reference compound], the “inactivation of SARS-CoV-2” value in [6] is on record as “complete inactivation”.
